The values below come from ChEMBL document CHEMBL3992481 (2016).

The subject of experiment [1] is Mycobacterium tuberculosis. As to the kind of experiment: Antitubercular activity against Mycobacterium tuberculosis H37Rv assessed as cell growth inhibition by microbroth dilution assay. The experiment is classed as functional. In general terms: Dilution methods test growth across graded concentrations, often in twofold steps.
Experiment [2] has as its system Mycobacterium tuberculosis. As to the kind of experiment: Antitubercular activity against Mycobacterium tuberculosis H37Rv. The experiment is classed as functional.
Experiment [3] deals with Mycobacterium tuberculosis H37Rv. Put plainly: Inhibition of lipase in Mycobacterium tuberculosis H37Rv assessed as cell growth inhibition after 7 days by resazurin assay.
Experiment [4] shares this test system. As to the kind of experiment: Ratio of MIC for inhibition of lipase in Mycobacterium tuberculosis H37Rv assessed as cell growth inhibition in absence of vancomycin to MIC for inhibition of lipase in Mycobacterium tuberculosis H37Rv assessed as cell growth inhibition in presence of vancomycin.
Experiment [5] has the same test system. Put plainly: Inhibition of lipase in Mycobacterium tuberculosis H37Rv expressing GFP assessed as cell growth inhibition at 4 uM by fluorescence assay.
For experiment [6] the test system is unchanged. As to the kind of experiment: Inhibition of lipase in Mycobacterium tuberculosis H37Rv infected in human monocyte derived macrophages assessed as inhibition of bacterial growth treated for 7 days starting from 4 day post infection relative to control.
Experiment [7] deals with T1, Carboxylic ester hydrolase LipN (Mycobacterium tuberculosis (strain ATCC 25618 / H37Rv)) (UniProt P95125).
T1 sequence (whole entry): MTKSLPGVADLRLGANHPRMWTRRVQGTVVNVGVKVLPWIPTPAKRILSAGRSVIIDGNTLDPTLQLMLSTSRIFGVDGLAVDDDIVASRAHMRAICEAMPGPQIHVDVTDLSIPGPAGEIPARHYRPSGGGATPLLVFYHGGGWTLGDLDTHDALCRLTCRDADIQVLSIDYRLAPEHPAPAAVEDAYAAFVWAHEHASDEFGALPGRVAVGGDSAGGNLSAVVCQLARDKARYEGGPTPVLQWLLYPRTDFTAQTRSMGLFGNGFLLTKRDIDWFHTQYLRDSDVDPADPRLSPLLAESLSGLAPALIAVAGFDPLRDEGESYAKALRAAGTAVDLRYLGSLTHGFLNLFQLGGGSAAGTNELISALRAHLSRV
Put plainly: Competitive binding affinity to Mycobacterium tuberculosis H37Rv ATCC 25618 lipaseN at 60 uM preincubated for 60 mins followed by La-1 probe addition measured after 30 mins by ABPP method.

For experiment [8], the target named is T2, Putative acetyl-hydrolase LipR (Mycobacterium tuberculosis (strain ATCC 25618 / H37Rv)) (UniProt P9WK85).
T2 sequence (whole entry): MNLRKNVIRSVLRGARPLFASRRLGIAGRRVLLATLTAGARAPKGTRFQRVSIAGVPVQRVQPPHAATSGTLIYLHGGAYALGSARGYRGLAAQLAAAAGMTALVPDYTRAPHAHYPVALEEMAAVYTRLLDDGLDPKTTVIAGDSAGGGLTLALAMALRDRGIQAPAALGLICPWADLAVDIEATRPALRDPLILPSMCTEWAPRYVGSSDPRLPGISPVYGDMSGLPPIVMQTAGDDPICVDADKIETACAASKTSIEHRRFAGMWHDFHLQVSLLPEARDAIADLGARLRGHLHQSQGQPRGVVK
Put plainly: Competitive binding affinity to Mycobacterium tuberculosis H37Rv ATCC 25618 lipaseR at 60 uM preincubated for 60 mins followed by La-1 probe addition measured after 30 mins by ABPP method.

The target in experiment [9] is T3, Esterase LipI (Mycobacterium tuberculosis (strain ATCC 25618 / H37Rv)) (UniProt P71668).
T3 sequence (whole entry): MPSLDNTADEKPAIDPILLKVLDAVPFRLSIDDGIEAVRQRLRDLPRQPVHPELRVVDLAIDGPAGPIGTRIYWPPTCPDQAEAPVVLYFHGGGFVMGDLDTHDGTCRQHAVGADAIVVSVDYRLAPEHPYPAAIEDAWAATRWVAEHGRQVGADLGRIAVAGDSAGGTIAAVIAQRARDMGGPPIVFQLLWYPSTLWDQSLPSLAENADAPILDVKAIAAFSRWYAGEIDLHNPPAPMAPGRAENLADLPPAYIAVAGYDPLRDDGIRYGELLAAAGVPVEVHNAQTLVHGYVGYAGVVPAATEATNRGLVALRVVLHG
Put plainly: Competitive binding affinity to Mycobacterium tuberculosis H37Rv ATCC 25618 lipase-I at 60 uM preincubated for 60 mins followed by La-1 probe addition measured after 30 mins by ABPP method.

Experiment [10] has as its target T4, Probable carboxylic ester hydrolase LipM (Mycobacterium tuberculosis (strain ATCC 25618 / H37Rv)) (UniProt Q50681).
T4 sequence (whole entry): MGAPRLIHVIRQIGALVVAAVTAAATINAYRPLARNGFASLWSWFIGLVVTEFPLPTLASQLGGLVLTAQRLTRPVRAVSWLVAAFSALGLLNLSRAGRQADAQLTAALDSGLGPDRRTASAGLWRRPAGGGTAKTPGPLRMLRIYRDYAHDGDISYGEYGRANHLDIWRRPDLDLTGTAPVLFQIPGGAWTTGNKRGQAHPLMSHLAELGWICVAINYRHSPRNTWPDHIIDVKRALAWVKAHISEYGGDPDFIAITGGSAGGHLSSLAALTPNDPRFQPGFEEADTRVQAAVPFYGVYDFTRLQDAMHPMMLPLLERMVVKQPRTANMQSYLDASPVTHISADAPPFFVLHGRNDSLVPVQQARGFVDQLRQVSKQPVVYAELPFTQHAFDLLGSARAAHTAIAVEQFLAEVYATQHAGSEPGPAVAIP
Put plainly: Competitive binding affinity to Mycobacterium tuberculosis H37Rv ATCC 25618 lipase-M at 60 uM preincubated for 60 mins followed by La-1 probe addition measured after 30 mins by ABPP method.

Experiment [11] deals with T5, Probable lipase/esterase LipG (Mycobacterium tuberculosis (strain ATCC 25618 / H37Rv)) (UniProt P96935).
T5 sequence (whole entry): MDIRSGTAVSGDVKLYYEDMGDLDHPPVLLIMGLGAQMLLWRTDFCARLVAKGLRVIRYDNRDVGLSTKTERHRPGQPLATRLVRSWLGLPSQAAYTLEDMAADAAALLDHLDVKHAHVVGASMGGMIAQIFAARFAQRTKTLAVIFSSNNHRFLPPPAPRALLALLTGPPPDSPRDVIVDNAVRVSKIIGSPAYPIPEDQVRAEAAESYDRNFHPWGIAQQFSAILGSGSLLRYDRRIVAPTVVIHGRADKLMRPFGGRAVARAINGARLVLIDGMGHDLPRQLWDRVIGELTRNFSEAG
Put plainly: Competitive binding affinity to Mycobacterium tuberculosis H37Rv ATCC 25618 lipase-G at 60 uM preincubated for 60 mins followed by La-1 probe addition measured after 30 mins by ABPP method.

Experiment [12] concerns the target T6, Carboxylic ester hydrolase (Mycobacterium tuberculosis (strain ATCC 25618 / H37Rv)) (UniProt O53488).
T6 sequence (whole entry): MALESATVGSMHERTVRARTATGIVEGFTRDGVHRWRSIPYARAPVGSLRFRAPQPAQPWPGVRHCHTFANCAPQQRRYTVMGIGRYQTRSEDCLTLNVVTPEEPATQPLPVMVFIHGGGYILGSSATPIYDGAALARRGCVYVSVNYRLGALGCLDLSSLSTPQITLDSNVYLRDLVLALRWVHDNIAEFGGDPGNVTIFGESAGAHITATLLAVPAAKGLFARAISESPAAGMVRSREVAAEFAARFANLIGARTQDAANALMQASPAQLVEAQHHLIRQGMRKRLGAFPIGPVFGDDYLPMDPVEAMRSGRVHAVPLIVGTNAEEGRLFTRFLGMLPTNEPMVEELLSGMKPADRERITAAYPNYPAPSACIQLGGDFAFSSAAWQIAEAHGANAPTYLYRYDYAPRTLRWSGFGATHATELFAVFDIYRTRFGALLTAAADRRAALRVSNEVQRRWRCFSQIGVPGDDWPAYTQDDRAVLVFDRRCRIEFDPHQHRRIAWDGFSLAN
As to the kind of experiment: Competitive binding affinity to Mycobacterium tuberculosis H37Rv ATCC 25618 lipase-T at 60 uM preincubated for 60 mins followed by La-1 probe addition measured after 30 mins by ABPP method.

The target of experiment [13] is T7, Probable esterase LipO (Mycobacterium tuberculosis (strain ATCC 25618 / H37Rv)) (UniProt O06832).
T7 sequence (whole entry): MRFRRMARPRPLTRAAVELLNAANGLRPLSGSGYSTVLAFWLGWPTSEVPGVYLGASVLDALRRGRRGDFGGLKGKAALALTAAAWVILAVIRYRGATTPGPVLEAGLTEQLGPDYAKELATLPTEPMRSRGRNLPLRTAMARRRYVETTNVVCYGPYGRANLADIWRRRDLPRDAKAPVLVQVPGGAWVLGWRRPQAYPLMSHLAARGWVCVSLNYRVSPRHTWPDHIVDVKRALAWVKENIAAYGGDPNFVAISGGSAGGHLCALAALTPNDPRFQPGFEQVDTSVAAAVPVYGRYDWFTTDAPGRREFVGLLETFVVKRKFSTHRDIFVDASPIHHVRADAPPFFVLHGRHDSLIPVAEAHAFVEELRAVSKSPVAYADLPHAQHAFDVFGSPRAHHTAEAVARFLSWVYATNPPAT
As to the kind of experiment: Competitive binding affinity to Mycobacterium tuberculosis H37Rv ATCC 25618 lipase-O at 60 uM preincubated for 60 mins followed by La-1 probe addition measured after 30 mins by ABPP method.

Experiment [14] relates to Mycobacterium tuberculosis H37Rv. Put plainly: Ratio of MIC for inhibition of lipase in Mycobacterium tuberculosis H37Rv assessed as cell growth inhibition in absence of lalistat to MIC for inhibition of lipase in Mycobacterium tuberculosis H37Rv assessed as cell growth inhibition in presence of lalistat.
Experiment [15] addresses T2, Putative acetyl-hydrolase LipR (Mycobacterium tuberculosis (strain ATCC 25618 / H37Rv)). As to the kind of experiment: Binding affinity to N-terminal His6-tagged Mycobacterium tuberculosis H37Rv ATCC 25618 lipase-R at 30 uM after 30 mins by RhN3 staining based fluorescence assay.

Values after ≈ are worked out from the molar mass of the structure shown. Active and inactive are the calls of the source. The rule behind the calls is not given here.

On to `CO[C@H]1/C=C/O[C@@]2(C)Oc3c(C)c(O)c4c(O)c(c(/C=N/N5CCN(C)CC5)c(O)c4c3C2=O)NC(=O)/C(C)=C\C=C\[C@H](C)[C@H](O)[C@@H](C)[C@@H](O)[C@@H](C)[C@H](OC(C)=O)[C@@H]1C` [RIFAMPIN], for which, in [1], the MIC lay in the range of 0.04 to 1 µM.
On to `NNC(=O)c1ccncc1` [ISONIAZID], for which the MIC in experiment [1] fell in the range of 0.04 to 1 µM.
For the compound `CCCCCCCCCCC[C@@H](C[C@@H]1OC(=O)[C@H]1CCCCCC)OC(=O)[C@H](CC(C)C)NC=O` [ORLISTAT], the MIC in experiment [2] came to 30 µM (≈ 14.9 µg/mL).
Take `O=C(Oc1nsnc1N1CCCCC1)N1CCCCC1`: in experiment [3], the MIC was in the range of 25 to 50 µM (≈ 7.41 to 14.8 µg/mL). In addition, the Ratio in experiment [4] came out at 4. Further, the “growth inhibition (GI)” value in experiment [5] was “Active”. Further, in experiment [6], the growth inhibition (GI) was 55%. Also, the result in experiment [7], in [8], in experiment [9], in experiment [10], in experiment [11] and in experiment [12] was Active. The result in experiment [13] was Active.
Turning to `CN[C@H](CC(C)C)C(=O)N[C@H]1C(=O)N[C@@H](CC(N)=O)C(=O)N[C@H]2C(=O)N[C@H]3C(=O)N[C@H](C(=O)N[C@H](C(=O)O)c4cc(O)cc(O)c4-c4cc3ccc4O)[C@H](O)c3ccc(c(Cl)c3)Oc3cc2cc(c3O[C@@H]2O[C@H](CO)[C@@H](O)[C@H](O)[C@H]2O[C@H]2C[C@](C)(N)[C@H](O)[C@H](C)O2)Oc2ccc(cc2Cl)[C@H]1O`, the Ratio in experiment [14] is 16.
Regarding `C#CC1CCN(C(=O)Oc2nsnc2N2CCCCC2)CC1`, the “growth inhibition (GI)” value in experiment [3] was “Active”. Also, the result in [15] was Active.
